Results published in patent US20110130397A1, “PYRROLINONE COMPOUNDS AS INHIBITORS OF BACTERIAL PEPTIDYL TRNA HYDROLASE AND USES THEREOF” (priority 2006, published 2011).
Several values for one entry are separate records, joined by “and”; a condition that tells them apart may be missing. Identical values can stand only once.

melting point | Structure (SMILES)
255 to 257 °C | Cc1ccc(C(=O)C2=C(O)C(=O)N(c3nc4ccc([N+](=O)[O-])cc4s3)C2c2ccccc2F)o1 (stereo not drawn) [Compound 152]
253 to 254 °C | Cc1ccc(C(=O)C2=C(O)C(=O)N(c3nc4ccccc4s3)C2c2ccccc2F)o1 (stereo not drawn) [Compound 163]
266 to 269 °C | CC(=O)NC(CC(C)C)C(=O)C1=C(O)C(=O)N(c2nc3ccc(F)cc3s2)C1c1ccc(Cl)cc1 (stereo not drawn) [Compound 649]
251 to 252 °C | Cc1ccc(C(=O)C2=C(O)C(=O)N(c3nc4ccc(F)cc4s3)C2c2cccc3ccccc23)o1 (stereo not drawn) [Compound 618]
197 to 198 °C | O=C(COc1ccccc1)C1=C(O)C(=O)N(c2nc3ccc(F)cc3s2)C1c1ccccc1F (stereo not drawn) [Compound 448]
254 to 255 °C | CCOc1ccc2nc(N3C(=O)C(O)=C(C(=O)c4ccc(C)o4)C3c3cccc(O)c3)sc2c1 (stereo not drawn) [Compound 223]
273 to 274 °C | Cc1ccc(C(=O)C2=C(O)C(=O)N(c3nc4c(Cl)cccc4s3)C2c2ccc(C#N)cc2)o1 (stereo not drawn) [Compound 622]
249 to 250 °C | COCC(=O)C1=C(O)C(=O)N(c2nc3ccc(F)cc3s2)C1c1ccc(F)cc1 (stereo not drawn) [Compound 444]
266 to 267 °C | Cc1ccc(C(=O)C2=C(O)C(=O)N(c3ncnc4[nH]cnc34)C2c2cccc([N+](=O)[O-])c2)o1 (stereo not drawn) [Compound 224]
207 to 208 °C | COc1ccccc1CC(=O)C1=C(O)C(=O)N(c2nc3ccc(F)cc3s2)C1c1ccccc1F (stereo not drawn) [Compound 482]
247 to 248 °C | COc1ccccc1CC(=O)C1=C(O)C(=O)N(c2nc3ccc(Cl)cc3s2)C1c1ccc(Cl)cc1 (stereo not drawn) [Compound 487]
293 to 297 °C | CC(=O)N1CCCC1C(=O)C1=C(O)C(=O)N(c2nc3ccc(F)cc3s2)C1c1ccc(Cl)cc1 (stereo not drawn) [Compound 648]
209 to 211 °C | Cc1ccc(C(=O)C2=C(O)C(=O)N(c3nc4ccc(F)cc4s3)C2c2ccc(OCCCN(C)C)cc2)o1 (stereo not drawn) [Compound 480]
248 to 249 °C | Cc1ccc(C(=O)C2=C(O)C(=O)N(c3nc4cccnc4s3)C2c2ccc3c(c2)OCO3)o1 (stereo not drawn) [Compound 247]
229 to 230 °C | O=C(C1=C(O)C(=O)N(c2nc3ccc(Cl)cc3s2)C1c1ccc(F)cc1)C1CC1 (stereo not drawn) [Compound 452]
240 to 241 °C | Cc1ccc(C(=O)C2=C(O)C(=O)N(c3nc4c(Cl)cccc4s3)C2c2ccc(OCc3ccccc3)cc2)o1 (stereo not drawn) [Compound 472]
91 to 93 °C | Cc1ccc(C(=O)C2=C(O)C(=O)N(Cc3nc4ccccc4[nH]3)C2c2ccccc2F)o1 (stereo not drawn) [Compound 566]
228 to 229 °C | COCC(=O)C1=C(O)C(=O)N(c2nc3ccc(F)cc3s2)C1c1ccccc1F (stereo not drawn) [Compound 443]
191 to 192 °C | CCCCOc1ccc(C2C(C(=O)c3ccc(C)o3)=C(O)C(=O)N2c2nc3ccc(OCC)cc3s2)cc1 (stereo not drawn) [Compound 187]
263 to 264 °C | COc1ccc2nc(N3C(=O)C(O)=C(C(=O)c4ccc(C)o4)C3c3cccc(O)c3)sc2c1 (stereo not drawn) [Compound 155]
236 to 237 °C | CCOC(=O)C1=C(O)C(=O)N(c2nc3ccc(Cl)cc3s2)C1c1ccc(F)cc1 (stereo not drawn) [Compound 422]
262 to 263 °C | O=C(O)CCC(=O)C1=C(O)C(=O)N(c2nc3ccc(Cl)cc3s2)C1c1ccc(F)cc1 (stereo not drawn) [Compound 569]

melting point | Structure (SMILES)
254 to 256 °C | Cc1ccc(C(=O)C2=C(O)C(=O)N(c3nc4ccc(Cl)cc4s3)C2c2ccccc2C)o1 (stereo not drawn) [Compound 626]
239 to 240 °C | CC(C)(C)C(=O)C1=C(O)C(=O)N(c2nc3ccc(Cl)cc3s2)C1c1ccc(F)cc1 (stereo not drawn) [Compound 421]
251 to 252 °C | Cc1ccc(C(=O)C2=C(O)C(=O)N(c3nc4cccnc4s3)C2c2cccc(C#N)c2)o1 (stereo not drawn) [Compound 246]
138 to 140 °C | CCc1ccc2nc(N3C(=O)C(O)=C(C(=O)c4ccc(C)o4)C3c3ccc(C(F)(F)F)cc3)sc2c1 (stereo not drawn) [Compound 137]
268 to 272 °C | CC(=O)N1CCCC1C(=O)C1=C(O)C(=O)N(c2nc3ccc(Cl)cc3s2)C1c1ccc(F)cc1 (stereo not drawn) [Compound 646, 4-(1-Acetylpyrrolidine-2-carbonyl)-1-(6-chlorobenzo[d]thiazol-2-yl)-5-(4-fluorophenyl)-3-hydroxy-1H-pyrrol-2(5H)-one]
232 to 233 °C | CC(C)(C)C(=O)C1=C(O)C(=O)N(c2nc3ccc(F)cc3s2)C1c1ccc(F)cc1 (stereo not drawn) [Compound 424]
215 to 216 °C and 213 to 214 °C | Cc1ccc(C(=O)C2=C(O)C(=O)N(c3nc4ccc(Cl)cc4s3)C2c2cccc(OCc3ccccc3)c2)o1 (stereo not drawn) [Compound 475]
244 to 245 °C | COc1cc(C2C(C(=O)c3ccc(C)o3)=C(O)C(=O)N2c2nc3ccc(F)cc3s2)cc(OC)c1OC (stereo not drawn) [Compound 606]
249 to 250 °C | COc1ccccc1CC(=O)C1=C(O)C(=O)N(c2nc3ccc(F)cc3s2)C1c1ccc(Cl)cc1 (stereo not drawn) [Compound 488]
197 to 201 °C | CCc1ccc2nc(N3C(=O)C(O)=C(C(=O)c4ccc(C)o4)C3c3ccc(Cl)c(Cl)c3)sc2c1 (stereo not drawn) [Compound 134]
201 to 202 °C | CCOC(=O)CCC(=O)C1=C(O)C(=O)N(c2nc3ccc(F)cc3s2)C1c1ccc(F)cc1 (stereo not drawn) [Compound 497]
171 to 173 °C | CCCCCC1C(C(=O)c2ccc(C)o2)=C(O)C(=O)N1c1nc2ccc(S(C)(=O)=O)cc2s1 (stereo not drawn) [Compound 181]
251 to 252 °C | CCOc1ccc2nc(N3C(=O)C(O)=C(C(=O)c4ccc(C)o4)C3c3ccccc3F)sc2c1 (stereo not drawn) [Compound 183]
251 to 252 °C | Cc1ccc(C(=O)C2=C(O)C(=O)N(c3nc4c(Cl)cccc4s3)C2c2ccc3c(c2)OCCO3)o1 (stereo not drawn) [Compound 598]
249 to 250 °C | Cc1ccc(C(=O)C2=C(O)C(=O)N(c3ncccn3)C2c2ccccc2F)o1 (stereo not drawn) [Compound 188]
219 to 220 °C | CCOC(=O)CCC(=O)C1=C(O)C(=O)N(c2nc3ccc(F)cc3s2)C1c1ccc(Cl)cc1 (stereo not drawn) [Compound 498]
204 to 206 °C | O=C(COc1ccccc1)C1=C(O)C(=O)N(c2nc3c(Cl)cccc3s2)C1c1ccc(F)cc1 (stereo not drawn) [Compound 450]
215 to 216 °C | CCOC(=O)CCC(=O)C1=C(O)C(=O)N(c2nc3c(Cl)cccc3s2)C1c1ccc(Cl)cc1 (stereo not drawn) [Compound 501]
218 to 219 °C | CCOC(=O)C1=C(O)C(=O)N(c2nc3ccc(F)cc3s2)C1c1ccc(F)cc1 (stereo not drawn) [Compound 425]
236 to 238 °C | CCc1ccc2nc(N3C(=O)C(O)=C(C(=O)c4ccc(C)o4)C3c3ccc(Cl)cc3)sc2c1 (stereo not drawn) [Compound 133]
259 to 260 °C | CCOc1ccc2nc(N3C(=O)C(O)=C(C(=O)c4ccc(C)o4)C3c3ccc(O)c(O)c3)sc2c1 (stereo not drawn) [Compound 221]
251 to 252 °C | CCOc1ccc2nc(N3C(=O)C(O)=C(C(=O)c4ccc(C)o4)C3c3ccc(O)c(C(=O)O)c3)sc2c1 (stereo not drawn) [Compound 254]

melting point | Structure (SMILES)
254 to 256 °C | Cc1ccc(C(=O)C2=C(O)C(=O)N(c3nc4ccc(F)cc4s3)C2c2ccc3ccccc3c2)o1 (stereo not drawn) [Compound 600]
218 to 219 °C | O=C(COc1ccccc1)C1=C(O)C(=O)N(c2nc3ccc(Cl)cc3s2)C1c1ccccc1F (stereo not drawn) [Compound 446]
131 to 133 °C | O=C(COc1ccccc1)C1=C(O)C(=O)N(c2nc3c(Cl)cccc3s2)C1c1ccccc1F (stereo not drawn) [Compound 449]
208 to 209 °C | Cc1ccc(C(=O)C2=C(O)C(=O)N(c3nc4ccc(S(C)(=O)=O)cc4s3)C2C2CCCCC2)o1 (stereo not drawn) [Compound 179]
226 to 227 °C | COCCOc1ccc(CCC(=O)C2=C(O)C(=O)N(c3nc4ccc(Cl)cc4s3)C2c2ccc(F)cc2)cc1 (stereo not drawn) [Compound 576]
174 to 177 °C | CCc1ccc2nc(N3C(=O)C(O)=C(C(=O)c4ccc(C)o4)C3c3cccc(Cl)c3)sc2c1 (stereo not drawn) [Compound 136]
204 to 206 °C | CCc1ccc2nc(N3C(=O)C(O)=C(C(=O)c4ccc(C)o4)C3c3ccccc3)sc2c1 (stereo not drawn) [Compound 130]
260 to 261 °C | Cc1ccc(C(=O)C2=C(O)C(=O)N(c3nc4ccc(Cl)cc4s3)C2c2cccc3ccccc23)o1 (stereo not drawn) [Compound 617]
256 to 257 °C | CCOc1ccc2nc(N3C(=O)C(O)=C(C(=O)c4ccc(C)o4)C3c3cccc([N+](=O)[O-])c3)sc2c1 (stereo not drawn) [Compound 184]
220 to 222 °C | CCc1ccc2nc(N3C(=O)C(O)=C(C(=O)c4ccc(C)o4)C3c3ccc(C(C)C)cc3)sc2c1 (stereo not drawn) [Compound 135]
219 to 220 °C | COCCOc1ccc(CCC(=O)C2=C(O)C(=O)N(c3nc4ccc(Cl)cc4s3)C2c2ccccc2F)cc1 (stereo not drawn) [Compound 575]
274 to 275 °C | Cc1ccc(C(=O)C2=C(O)C(=O)N(c3nc4c(Cl)cccc4s3)C2c2cccc(F)c2F)o1 (stereo not drawn) [Compound 625]
244 to 245 °C | Cc1ccc(C(=O)C2=C(O)C(=O)N(c3nc4cc(Cl)ccc4o3)C2c2ccccc2F)o1 (stereo not drawn) [Compound 160]
231 to 233 °C | COCC(=O)C1=C(O)C(=O)N(c2nc3c(Cl)cccc3s2)C1c1ccccc1F (stereo not drawn) [Compound 445]
255 to 256 °C | COc1cccc(C2C(C(=O)c3ccc(C)o3)=C(O)C(=O)N2c2nc3c(Cl)cccc3s2)c1 (stereo not drawn) [Compound 604]
253 to 254 °C | COCC(=O)C1=C(O)C(=O)N(c2nc3ccc(Cl)cc3s2)C1c1ccccc1F (stereo not drawn) [Compound 441]
235 to 236 °C | Cc1ccc(C(=O)C2=C(O)C(=O)N(c3ccncn3)C2c2ccccc2F)o1 (stereo not drawn) [Compound 189]
223 to 224 °C | Cc1ccc(C(=O)C2=C(O)C(=O)N(c3nc4ccc(F)cc4s3)C2c2ccc(F)c(F)c2)o1 (stereo not drawn) [Compound 462]
96 to 100 °C | Cc1ccc(C(=O)C2=C(O)C(=O)N(Cc3nc4ccccc4[nH]3)C2c2ccc(F)cc2)o1 (stereo not drawn) [Compound 567]
187 to 188 °C | Cc1ccc(C(=O)C2=C(O)C(=O)N(c3nc4ccc(F)cc4s3)C2c2cccc(OCc3ccccc3)c2)o1 (stereo not drawn) [Compound 476]
320 to 321 °C | O=C(C1=C(O)C(=O)N(c2nc3c(Cl)cccc3s2)C1c1ccccc1F)c1nccs1 (stereo not drawn) [Compound 439]
197 to 198 °C | Cc1ccc(C(=O)C2=C(O)C(=O)N(CCc3c[nH]c4ccccc34)C2c2ccccc2F)o1 (stereo not drawn) [Compound 593]
